In this assay the target is T1, haematopoietic prostaglandin D synthase (H-PGDS) (Homo sapiens, UniProt O60760).
T1 construct: Full length human H-PGDS cDNA (Invitrogen Ultimate ORF 10H13026) was amplified by PCR; 6-His (N); TEV protease cleavage site (N); made in house; host or cells: E. coli BL21 (DE3*), vector pET22b+
The assay can be described thus: H-PGDS RapidFire high throughput mass spectrometry assay (conversion of PGH2 to PGD2). Particulars: 10 nM H-PGDS, PGH2 formed in situ by COX-2 from arachidonic acid; read-out: Potency Range (mean pIC50) (converted). It is filed as biochemical. The protocol: H-PGDS RapidFire™ High Throughput Mass Spectrometry Assay
The H-PGDS RapidFire™ mass spectrometric assay monitors conversion of prostaglandin H2 (PGH2) to prostaglandin D2 (PGD2) by haematopoietic prostaglandin D synthase (H-PGDS). In the assay format described here, the substrate (PGH2) is formed in situ by the action of cyclooxygenase-2 on arachidonic acid. This first step is set up to be fast, and generates a burst of PGH2 at ˜10 μM. The PGH2 is then further converted to PGD2 by the H-PGDS enzyme. […] Plates are then read on the RapidFire™ high throughput solid phase extraction system (Agilent) which incorporates a solid phase extraction step coupled to a triple quadrupole mass spectrometer (AB SCIEX). Relative levels of PGD2 and PGF2α, which acts as a surrogate for substrate, are measured and a percent conversion calculated.
Expression and Purification of H-PGDS Protein
Full length human H-PGDS cDNA (Invitrogen Ultimate ORF 10H13026) was amplified by PCR with the addition of a 5′ 6-His tag and TEV protease cleavage site. The PCR product was digested with Ndel and Xhol and ligated into pET22b+ (Merck Novagen®). Expression was carried out in E. coli strain BL21 (DE3*) using auto-induction Overnight Express™ Instant TB medium (Merck Novagen®) supplemented with 1% glycerol. The culture was first grown at 37° C. and the temperature was reduced to 25° C. when OD600 reached 2.0. Cells were harvested by centrifugation after a further 18 hr. 10 g of E. coli cell pellet was suspended to a total volume of 80 mL in lysis buffer (20 mM Tris-Cl pH 7.5, 300 mM NaCl, 20 mM imidazole, 5 mM β-mercaptoethanol, 10% glycerol). 1 mg/mL protease inhibitors (Protease Inhibitor Cocktail Set III, Merck Calbiochem®) and 1 mg/mL lysozyme were added to the cell suspension. The suspension was then sonicated for 5 min (UltraSonic Processor VCX 750, Cole-Parmer Instrument Co.) with a micro probe (50% amplitude, 10 sec on/off) and then centrifuged at 100,000 g for 90 min (at 4° C.). The supernatant was loaded onto a Ni-NTA HiTrap column (5 mL, GE Healthcare, pre-equilibrated in lysis buffer). The column was washed with 10 column volumes of lysis buffer and eluted with lysis buffer containing 500 mM imidazole. The pooled protein peak fractions were concentrated using a 10 kDa centrifugal filter at 3500 g and 4° C. (Amicon Ultra-15 centrifugal filter unit with Ultracel-10 membrane from Millipore). Further purification of the concentrated protein was carried out using gel filtration chromatography on a HiLoad 26/600 Superdex 75 preparative grade column (GE Healthcare Life Sciences) using 50 mM Tris pH 7.5, 50 mM NaCl, 1 mM dithiothreitol, 1 mM MgCl2. Fractions containing the protein were pooled, concentrated as described above, and stored at −80° C.
Expression and Purification of Cyclooxygenase-2 (COX-2) Protein
The full length human COX-2 gene (accession number L15326) was amplified by PCR to generate an EcoRI-HindIII fragment containing an in-frame FLAG tag. This was subcloned into pFastBac 1 (Invitrogen). The COX2 FLAG plasmid was recombined into the baculovirus genome according to the BAC-to-BAC protocol described by Invitrogen. Transfection into Spodoptera frugiperda (Sf9) insect cells was performed using Cellfectin (Invitrogen), according to the manufacturer's protocol. […] Cells were harvested using a continuous feed centrifuge run at 2500 g at a rate of approximately 2 L/min with cooling. The resultant cell slurry was re-centrifuged in pots (2500 g, 20 min, 4° C.) and the cell paste was stored at −80° C. […] The suspension was sonicated in 500 mL batches for 8×5 seconds at 10 u amplitude with the medium tip of an MSE probe sonicator and subsequently incubated at 4° C. for 90 min with gentle stirring. The lysate was centrifuged at 12000 rpm for 45 min at 4° C. in a Sorvall SLA1500 rotor. The supernatant (1400 mL) was added to 420 mL of 20 mM Tris-Cl pH 7.4, 150 mM NaCl, 0.1 mM EDTA to reduce the concentration of n-octyl-6-D-glucopyranoside to 1% w/v.

T1 sequence (O60760 whole entry): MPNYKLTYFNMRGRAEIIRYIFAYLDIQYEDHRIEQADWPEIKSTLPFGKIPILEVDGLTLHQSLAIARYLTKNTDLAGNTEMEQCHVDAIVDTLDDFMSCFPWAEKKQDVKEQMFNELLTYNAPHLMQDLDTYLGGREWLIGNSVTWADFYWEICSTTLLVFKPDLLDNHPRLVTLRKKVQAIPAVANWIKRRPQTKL

For the compound `CC(C)(O)[C@@H]1CC[C@@H](NC(=O)N2CC(Oc3cccc4scnc34)C2)CO1` (racemic) [Example 104, Racemic 3-(Benzo[d]thiazol-4-yloxy)-N-((trans)-6-(2-hydroxypropan-2-yl)tetrahydro-2H-pyran-3-yl)azetidine-1-carboxamide], the IC50 is 10 to 79.4 nM.

As for `CC(C)(O)C1CC2(CC(NC(=O)[C@H]3C[C@H](Oc4cc(F)cc5scnc45)C3)C2)C1` (mixture of isomers) [Example 116, Racemic (trans)-3-((6-Fluorobenzo[d]thiazol-4-yl)oxy)-N-(6-(2-hydroxypropan-2-yl)spiro[3.3]heptan-2-yl)cyclobutanecarboxamide], the IC50 was 10 to 79.4 nM. For `CC(N[C@H]1CC[C@H](NC(=O)[C@H]2C[C@H](Oc3cc(F)cc4scnc34)C2)CC1)C(F)F` (mixture of isomers) [Example 121, Racemic (trans)-N-((trans)-4-((1,1-Difluoropropan-2-yl)amino)cyclohexyl)-3-((6-fluorobenzo[d]thiazol-4-yl)oxy)cyclobutanecarboxamide] the value was 10 to 79.4 nM. Consider `O=C(N[C@H]1CC[C@@H](NC(CO)C(F)(F)F)CC1)N1CC(Oc2cc(F)cc3scnc23)C1` (mixture of isomers) [Example 124, Racemic 3-((6-Fluorobenzo[d]thiazol-4-yl)oxy)-N-((cis)-4-((1,1,1-trifluoro-3-hydroxypropan-2-yl)amino)cyclohexyl)azetidine-1-carboxamide], for which the IC50 was 10 to 79.4 nM. As to `O=C(N[C@H]1CC[C@@H](NC(CO)C(F)(F)F)CC1)[C@H]1C[C@H](Oc2cc(F)cc3scnc23)C1` (mixture of isomers) [Example 125, Racemic (trans)-3-((6-Fluorobenzo[d]thiazol-4-yl)oxy)-N-((cis)-4-((1,1,1-trifluoro-3-hydroxypropan-2-yl)amino)cyclohexyl)cyclobutanecarboxamide], the IC50 is 10 to 79.4 nM. On to `O=C(N[C@H]1CC[C@H](NC(CO)C(F)(F)F)CC1)[C@H]1C[C@H](Oc2cc(F)cc3scnc23)C1` (mixture of isomers) [Example 126, Racemic (trans)-3-((6-Fluorobenzo[d]thiazol-4-yl)oxy)-N-((trans)-4-((1,1,1-trifluoro-3-hydroxypropan-2-yl)amino)cyclohexyl)cyclobutanecarboxamide], for which the IC50 is 10 to 79.4 nM. For `CC(C)(O)[C@@H]1CC[C@@H](NC(=O)N2CC(Oc3cc(F)cc4scnc34)C2)CO1` (racemic) [Example 127, Racemic 3-((6-Fluorobenzo[d]thiazol-4-yl)oxy)-N-((trans)-6-(2-hydroxypropan-2-yl)tetrahydro-2H-pyran-3-yl)azetidine-1-carboxamide], the IC50 is 10 to 79.4 nM. The same measure for `CC(C)(O)[C@@H]1CC[C@@H](NC(=O)[C@H]2C[C@H](Oc3cc(F)cc4scnc34)C2)CO1` (racemic) [Example 139, Racemic (trans)-3-((6-Fluorobenzo[d]thiazol-4-yl)oxy)-N-((trans)-6-(2-hydroxypropan-2-yl)tetrahydro-2H-pyran-3-yl)cyclobutanecarboxamide]: 10 to 79.4 nM. `CC(N[C@H]1CC[C@H](NC(=O)N2CC(Oc3cc(F)cc4scnc34)C2)CC1)C(F)F` (mixture of isomers) [Example 142, Racemic N-((trans)-4-((1,1-Difluoropropan-2-yl)amino)cyclohexyl)-3-((6-fluorobenzo[d]thiazol-4-yl)oxy)azetidine-1-carboxamide]: the IC50 was 10 to 79.4 nM. For `COc1ccc(F)cc1O[C@H]1C[C@H](C(=O)NC2CCN(C(=O)OC(C)(C)C)C2)C1` (mixture of isomers) [Example 143, tert-butyl 3-((trans)-3-(5-fluoro-2-methoxyphenoxy)cyclobutanecarboxamido)pyrrolidine-1-carboxylate] the value was 10 to 79.4 nM; for `COc1ccc(F)cc1O[C@H]1C[C@H](C(=O)NC2CCN(c3ncc(C#N)s3)C2)C1` (mixture of isomers) [Example 144, Racemic (trans)-N-(1-(5-Cyanothiazol-2-yl)pyrrolidin-3-yl)-3-(5-fluoro-2-methoxyphenoxy)cyclobutanecarboxamide], 10 to 79.4 nM. For `COc1ccc(F)cc1O[C@H]1C[C@H](C(=O)NC2CCN(c3cc(C#N)ccn3)C2)C1` (mixture of isomers) [Example 145, Racemic (trans)-N-(1-(4-Cyanopyridin-2-yl)pyrrolidin-3-yl)-3-(5-fluoro-2-methoxyphenoxy)cyclobutanecarboxamide] the value was 10 to 79.4 nM. For the compound `COc1ccc(F)cc1O[C@H]1C[C@H](C(=O)NC2CC(=O)Nc3ccccc32)C1` (mixture of isomers) [Example 153, Racemic (trans)-3-(5-Fluoro-2-methoxyphenoxy)-N-(2-oxo-1,2,3,4-tetrahydroquinolin-4-yl)cyclobutanecarboxamide], the IC50 is 10 to 79.4 nM. `COc1ccc(F)cc1O[C@H]1C[C@H](C(=O)NC2CC3(C2)CC(C(C)(C)O)C3)C1` (mixture of isomers) [Example 160, Racemic (trans)-3-(5-Fluoro-2-methoxyphenoxy)-N-(6-(2-hydroxypropan-2-yl)spiro[3.3]heptan-2-yl)cyclobutanecarboxamide]: the IC50 is less than 10 nM.

`COc1ccc(F)cc1O[C@H]1C[C@H](C(=O)N[C@H]2CC[C@H](NC(C)C(F)(F)F)CC2)C1` (mixture of isomers) [Example 161, Racemic (trans)-3-(5-Fluoro-2-methoxyphenoxy)-N-((trans)-4-((1,1,1-trifluoropropan-2-yl)amino)cyclohexyl)cyclobutanecarboxamide]: the IC50 was 10 to 79.4 nM. Consider `CC(C)(O)C1CC2(CC(NC(=O)[C@H]3C[C@H](Oc4cccc5cccnc45)C3)C2)C1` (mixture of isomers) [Example 170, Racemic (trans)-N-(6-(2-Hydroxypropan-2-yl)spiro[3.3]heptan-2-yl)-3-(quinolin-8-yloxy)cyclobutanecarboxamide], for which the IC50 is 10 to 79.4 nM.

For the compound `CC(N[C@H]1CC[C@H](NC(=O)[C@H]2C[C@H](Oc3cccc4cccnc34)C2)CC1)C(F)(F)F` (mixture of isomers) [Example 173, Racemic (trans)-3-(Quinolin-8-yloxy)-N-((trans)-4-((1,1,1-trifluoropropan-2-yl)amino)cyclohexyl)cyclobutanecarboxamide], the IC50 is 10 to 79.4 nM.

For `CC(N[C@H]1CC[C@H](NC(=O)[C@H]2C[C@H](Oc3cccc4cccnc34)C2)CC1)C(F)F` (mixture of isomers) [Example 180, Racemic (trans)-N-((trans)-4-((1,1-Difluoropropan-2-yl)amino)cyclohexyl)-3-(quinolin-8-yloxy)cyclobutanecarboxamide], the IC50 is 100 to 1000 nM. For the compound `CC(O)(c1csc(NC(=O)[C@H]2C[C@H](Oc3cccc4cccnc34)C2)n1)C(F)(F)F` (mixture of isomers) [Example 187, Racemic (trans)-3-(Quinolin-8-yloxy)-N-(4-(1,1,1-trifluoro-2-hydroxypropan-2-yl)thiazol-2-yl)cyclobutanecarboxamide], the IC50 was 10 to 79.4 nM.

On to `CC(C)(O)[C@@H]1CC[C@@H](NC(=O)[C@H]2C[C@H](Oc3cccc4cccnc34)C2)CO1` (racemic) [Example 195, Racemic (trans)-N-((trans)-6-(2-Hydroxypropan-2-yl)tetrahydro-2H-pyran-3-yl)-3-(quinolin-8-yloxy)cyclobutanecarboxamide], for which the IC50 was 100 to 1000 nM.
